Data published in patent publication US20260272943A1, “Acyl Ethyl Ester Polycyclic Compound, and Pharmaceutical Composition and Use Thereof” (priority 2023, published 2026).
≈ marks a conversion by molar mass, not a printed value.

Assays:
[1] = test system: H1N1 influenza A virus strain A/FM/1/47; assay: Anti-influenza virus activity in vitro (inhibition of virus replication in MDCK cells); assay type: cell-based; conditions: 72 h, read-out: EC50 for in vitro inhibition of replication of H1N1 (FM1) influenza virus
[2] = PK study in cynomolgus monkeys, single oral gavage; assay type: in vivo; conditions: single oral gavage 5.0 mg/kg
Description: Cynomolgus monkeys were administered with a single oral gavage with different groups of drugs, including compound I-1-1-2, compound I-1-1-3 and Baloxavir Marboxil. After administration, plasma at different time points were collected to detect the drug content, and the pharmacokinetic parameters of different groups of drugs in cynomolgus monkeys were calculated and compared.
24 cynomolgus monkeys, aged 3-5 years old and weighing 3 kg-7 kg, with half male and half female, were used and randomly assigned to 3 groups according to their body weight, with 8 monkeys in each group. Animal grouping information was as follows:
After cynomolgus monkeys were randomly assigned to groups, they were fasted for more than 12 hours before administration and were allowed to drink water freely. Drinking water was prohibited from 1 hour before administration to 1 hour after administration. Food was provided 4 hours after administration. Each group was administered with a single oral gavage dose of 5.0 mg/kg. Approximately 1.0 mL of jugular vein blood was collected at 0 h before administration and 5 min, 10 min, 15 min, 30 min, 1 h, 2 h, 4 h, 6 h, 8 h, 12 h, 24 h, and 48 h (D2) after administration, and placed in EDTA-K2 anticoagulation tubes.
(§1) After the whole blood was collected, the plasma was separated by centrifugation at 4000 rpm for 10 min at 4° C., and then stored in a refrigerator at −80° C. for testing. The plasma drug concentration of samples in each group was determined by LC-MS/MS.
PK parameters were calculated using non-compartmental model in a Phoenix winnonlin 8.0. Data analysis included Cmax, Tmax, AUC0-t, AUC0-∞∞, t1/2 and other pharmacokinetic parameters.

[3] = PK study in rats, single oral gavage; assay type: in vivo; conditions: SD rats, single oral gavage 3.0 mg/kg
Description: SD rats were administered in a single oral gavage administration with different groups of drugs, including compound I-1-1-2, compound I-1-1-3, compound I-1-1-6, compound I-20, compound II-5, and Baloxavir Marboxil. After administration, plasma at different time points were collected to detect the drug content, and the pharmacokinetic parameters of different groups of drugs in SD rats were calculated and compared.
48 SD rats, weighing 180 g-220 g, with half male and half female, were randomly assigned to 6 groups according to their body weight, with 8 rats in each group. Animal grouping information was as follows:
After SD rats were randomly assigned to groups, they were fasted for more than 12 hours before administration and were allowed to drink water freely. Drinking water was prohibited from 1 hour before administration to 1 hour after administration. Food was provided 4 hours after administration. Each group was administered with a single oral gavage dose of 3.0 mg/kg. Approximately 0.2 mL of jugular vein blood was collected at 0 h before administration and 5 min, 10 min, 15 min, 30 min, 1 h, 2 h, 4 h, 6 h, 10 h, 24 h and 30 h after administration, and placed in EDTA-K2 anticoagulation tubes.
as §1
PK parameters were calculated using a non-compartmental model in Phoenix winnonlin 8.0. Data analysis included Cmax, Tmax, AUC0-t, AUC0-∞∞, t1/2 and other pharmacokinetic parameters.

[2H]C([2H])([2H])C(=O)OC(C)Oc1c2n(ccc1=O)N([C@@H]1c3ccccc3SCc3c1ccc(F)c3F)[C@@H]1COCCN1C2=O (some centres unmarked) [Compound I-20, reference compound]
EC50 [1]: 0.32 µg/mL (≈ 0.559 µM)

CC(=O)O[C@@H](C)Oc1c2n(ccc1=O)N([C@@H]1c3ccccc3SCc3c1ccc(F)c3F)[C@@H]1COCCN1C2=O [Compound I-1-1-1]
EC50 [1]: 0.32 µg/mL (≈ 0.562 µM)

CC(=O)OC(C)Oc1c2n(ccc1=O)N([C@@H]1c3ccccc3SCc3c1ccc(F)c3F)[C@@H]1COCCN1C2=O (some centres unmarked) [Compound I-1-1-3]
EC50 [1]: 0.32 µg/mL (≈ 0.562 µM)
Bioavailability (Cmax and AUC0-t) compared with Baloxavir Marboxil group [2]: significantly improved
Bioavailability (Cmax and AUC0-t) compared with Baloxavir Marboxil group [3]: significantly improved
Bioavailability (Cmax and AUC0-t) compared with Compound I-20 and Compound II-5 groups [3]: significantly improved

CC(=O)OCOc1c2n(ccc1=O)N([C@@H]1c3ccccc3SCc3c1ccc(F)c3F)[C@@H]1COCCN1C2=O [Compound II-5, reference compound]
EC50 [1]: 0.32 µg/mL (≈ 0.576 µM)

COC(=O)OCOc1c2n(ccc1=O)N([C@@H]1c3ccccc3SCc3c1ccc(F)c3F)[C@@H]1COCCN1C2=O [Baloxavir Marboxil, reference compound]
EC50 [1]: 0.32 µg/mL (≈ 0.56 µM)
Bioavailability (Cmax and AUC0-t) compared with Compound I-20 and Compound II-5 groups [3]: significantly improved

CC(=O)OC(C)Oc1c2n(ccc1=O)N([C@@H]1c3ccccc3[Se]Cc3c1ccc(F)c3F)[C@@H]1COCCN1C2=O (some centres unmarked) [Compound I-1-1-6]
EC50 [1]: 0.32 µg/mL (≈ 0.519 µM)

CC(=O)O[C@H](C)Oc1c2n(ccc1=O)N([C@@H]1c3ccccc3SCc3c1ccc(F)c3F)[C@@H]1COCCN1C2=O [Compound I-1-1-2]
EC50 [1]: 0.032 µg/mL (≈ 0.0562 µM)
Bioavailability (Cmax and AUC0-t) compared with Baloxavir Marboxil group [2]: significantly improved
Exposure rank among groups [2]: highest exposure
Half-life rank among groups [2]: longest half-life
Bioavailability (Cmax and AUC0-t) compared with Baloxavir Marboxil group [3]: significantly improved
Bioavailability (Cmax and AUC0-t) compared with Compound I-20 and Compound II-5 groups [3]: significantly improved
Half-life (t1/2) rank among groups [3]: longest half-life
